Measurements published in patent publication US20260109732A1, “LIPID AMINES” (ModernaTX, Inc., priority 2021, published 2026).
Counter-ions that a name gives are not always drawn.

Experiments:
[1] = Diameter and PDI from DLS measurements of mRNA nanoparticles with lipid amines; assay type: physicochemical
Procedure, shortened: (§1)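 DLS gave size and PDI, and Ribogreen gave encapsulation, for luciferase- or CFTR-mRNA nanoparticles (N:P 4.93). Particles came from IL1/DSPC/cholesterol/PEG-DMG-2K mixed at pH 4, mRNA-loaded, neutralized with TRIS pH 8.12, and then treated with lipid amine SA50 in pH 7.5 buffer.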

[2] = Encapsulation of mRNA nanoparticles with lipid amines using Ribogreen assay; assay type: physicochemical
Procedure, shortened: as §1

HeLa cells [3] = assay: Luciferase Protein Expression Assay in HeLa Cells; assay type: cell-based, Human; details: LNPs encapsulating Luciferase mRNA, 25 ng per well, N=4 wells; 5 h serum-free then 24 h; ONE-Glo
Procedure, shortened: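 Luminescence output, average RLU across N=4 wells, was measured with ONE-Glo after cell lysis. Before that, HeLa cells were exposed to 25 ng/well luciferase-mRNA nanoparticles (PBS control) for 5 h serum-free, then cultured overnight (24 h) in complete MEM.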

HeLa cells [4] = assay: CFTR Protein Expression Assay in HeLa Cells; assay type: cell-based, Human; details: LNPs encapsulating CFTR mRNA, N=4 wells; 5 h serum-free then 24 h; immunofluorescence vs PBS control
Procedure, shortened: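 Readout is fold-change in per-cell CFTR immunofluorescence intensity (488 nm, confocal imaging) relative to PBS-treated cells, from 4 replicate wells. LNPs encapsulating CFTR mRNA were applied serum-free for 5 h, followed by 24 h in complete medium before PFA fixation.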

[5] = CFTR mRNA nanoparticle with lipid amine
[6] = Luciferase mRNA nanoparticle modified with lipid amine

Row | SMILES | Diameter (nm) [1, 5] [nm] | PDI [1, 5] | Diameter (nm) [1, 6] [nm] | PDI [1, 6] | % Encapsulation (Ribogreen) [2, 5] [%] | % Encapsulation (Ribogreen) [2, 6] [%] | Average Relative Light Units ± Standard Deviation (HeLa cells [3]) [Relative Light Units] | Average fold-change in CFTR signal intensity per cell compared to buffer control ± standard deviation (HeLa cells [4]) [fold-change]
1 | CC[C@H](CC[C@@H](C)[C@H]1CC[C@H]2[C@@H]3CC=C4C[C@@H](OC(=O)CCCC(=O)N(CCCCNCCC(C)(C)N)CCC(C)(C)N)CC[C@]4(C)[C@H]3CC[C@]12C)C(C)C.Cl.Cl.Cl [SA137, (3S,8S,9S,10R,13R,14S,17R)-17-((2R,5R)-5-ethyl-6-methylheptan-2-yl)-10,13-dimethyl-2,3,4,7,8,9,10,11,12,13,14,15,16,17-tetradecahydro-1H-cyclopenta[a]phenanthren-3-yl 5-((3-amino-3-methylbutyl)(4-((3-amino-3-methylbutyl)amino)butyl)amino)-5-oxopentanoate trihydrochloride] | 76.3 | 0.13 | 79 | 0.20 | 98.3 | 99.6 | 15239.8 ± 6248.1 | 14.0 ± 0.8
2 | CC(C)CCC[C@@H](C)[C@H]1CC[C@H]2[C@@H]3CC=C4C[C@@H](SSCCC(=O)N(CCCCNCCC(C)(C)N)CCC(C)(C)N)CC[C@]4(C)[C@H]3CC[C@]12C.Cl.Cl.Cl [SA138, N-(3-amino-3-methylbutyl)-N-(4-((3-amino-3-methylbutyl)amino)butyl)-3-(((3S,8S,9S,10R,13R,14S,17R)-10,13-dimethyl-17-((R)-6-methylheptan-2-yl)-2,3,4,7,8,9,10,11,12,13,14,15,16,17-tetradecahydro-1H-cyclopenta[a]phenanthren-3-yl)disulfaneyl)propanamide trihydrochloride] | 89.6 | 0.12 | 72 | 0.19 | 96.4 | 99.2 | 22039.8 ± 8550.1 | 12.1 ± 1.1
3 | CC(C)CCC[C@@H](C)[C@H]1CC[C@H]2[C@@H]3CC=C4C[C@@H](SSCCC(=O)N(CCCCCCCC(C)(C)N)CCC(C)(C)N)CC[C@]4(C)[C@H]3CC[C@]12C.Cl.Cl [SA139, N-(3-amino-3-methylbutyl)-N-(8-amino-8-methylnonyl)-3-(((3S,8S,9S,10R,13R,14S,17R)-10,13-dimethyl-17-((R)-6-methylheptan-2-yl)-2,3,4,7,8,9,10,11,12,13,14,15,16,17-tetradecahydro-1H-cyclopenta[a]phenanthren-3-yl)disulfaneyl)propanamide dihydrochloride] | 68.9 | 0.12 | 72 | 0.12 | 99.4 | 99.4 | 24497.9 ± 3998.9 | 13.3 ± 1.2
4 | CC(C)CCC[C@@H](C)[C@H]1CC[C@H]2[C@@H]3CC=C4C[C@@H](OC(=O)CCCC(=O)N(CCCCCCCC(C)(C)N)CCC(C)(C)N)CC[C@]4(C)[C@H]3CC[C@]12C.Cl.Cl [SA141, (3S,8S,9S,10R,13R,14S,17R)-10,13-dimethyl-17-((R)-6-methylheptan-2-yl)-2,3,4,7,8,9,10,11,12,13,14,15,16,17-tetradecahydro-1H-cyclopenta[a]phenanthren-3-yl 5-((3-amino-3-methylbutyl)(8-amino-8-methylnonyl)amino)-5-oxopentanoate dihydrochloride] | 70.8 | 0.12 | 73 | 0.15 | 98.9 | 98.9 | 35801.9 ± 8884.3 | 14.9 ± 0.6
5 | CC(C)CCC[C@@H](C)[C@H]1CC[C@H]2[C@@H]3CC=C4C[C@@H](OC(=O)CCCC(=O)N(CCCCCCCC(C)N)CCC(C)N)CC[C@]4(C)[C@H]3CC[C@]12C (stereo partly drawn) [SA142, (3S,8S,9S,10R,13R,14S,17R)-10,13-dimethyl-17-((R)-6-methylheptan-2-yl)-2,3,4,7,8,9,10,11,12,13,14,15,16,17-tetradecahydro-1H-cyclopenta[a]phenanthren-3-yl 5-((3-aminobutyl)(8-aminononyl)amino)-5-oxopentanoate dihydrochloride] | 69.5 | 0.14 | 72 | 0.19 | 99.0 | 99.5 | 44925.4 ± 6006.5 | 20.0 ± 1.0
6 | CC[C@H](CC[C@@H](C)[C@H]1CC[C@H]2[C@@H]3CC=C4C[C@@H](OC(=O)N(CCCCCCCC(C)N)CCC(C)N)CC[C@]4(C)[C@H]3CC[C@]12C)C(C)C (stereo partly drawn) [SA144, (3S,8S,9S,10R,13R,14S,17R)-17-((2R,5R)-5-ethyl-6-methylheptan-2-yl)-10,13-dimethyl-2,3,4,7,8,9,10,11,12,13,14,15,16,17-tetradecahydro-1H-cyclopenta[a]phenanthren-3-yl (3-aminobutyl)(8-aminononyl)carbamate dihydrochloride] | 69.3 | 0.12 | 71 | 0.15 | 98.8 | 99.2 | 33357.5 ± 5288.8 | 17.9 ± 2.1
7 | CC(C)CCC[C@@H](C)[C@H]1CC[C@H]2[C@@H]3CC=C4C[C@@H](SSCCC(=O)N(CCCC(C)(C)N)CCC(C)(C)N)CC[C@]4(C)[C@H]3CC[C@]12C [SA145, N-(3-amino-3-methylbutyl)-N-(4-amino-4-methylpentyl)-3-(((3S,8S,9S,10R,13R,14S,17R)-10,13-dimethyl-17-((R)-6-methylheptan-2-yl)-2,3,4,7,8,9,10,11,12,13,14,15,16,17-tetradecahydro-1H-cyclopenta[a]phenanthren-3-yl)disulfaneyl)propanamide dihydrochloride] | 71.8 | 0.14 | 77 | 0.17 | 99.8 | 99.7 | 36033.7 ± 4254.5 | 14.4 ± 0.6
8 | CC[C@H](CC[C@@H](C)[C@H]1CC[C@H]2[C@@H]3CC=C4C[C@@H](OC(=O)N(CCCC(C)(C)N)CCC(C)(C)N)CC[C@]4(C)[C@H]3CC[C@]12C)C(C)C [SA149, (3S,8S,9S,10R,13R,14S,17R)-17-((2R,5R)-5-ethyl-6-methylheptan-2-yl)-10,13-dimethyl-2,3,4,7,8,9,10,11,12,13,14,15,16,17-tetradecahydro-1H-cyclopenta[a]phenanthren-3-yl (3-amino-3-methylbutyl)(4-amino-4-methylpentyl)carbamate dihydrochloride] | 72.3 | 0.14 | 75 | 0.15 | 99.9 | 99.5 | 31035.2 ± 6333.7 | 15.8 ± 1.4
9 | CC(C)CCC[C@@H](C)[C@H]1CC[C@H]2[C@@H]3CC=C4C[C@@H](OC(=O)N(CCCCCCCC(C)N)CCC(C)N)CC[C@]4(C)[C@H]3CC[C@]12C (stereo partly drawn) [SA151, (3S,8S,9S,10R,13R,14S,17R)-10,13-dimethyl-17-((R)-6-methylheptan-2-yl)-2,3,4,7,8,9,10,11,12,13,14,15,16,17-tetradecahydro-1H-cyclopenta[a]phenanthren-3-yl (3-aminobutyl)(8-aminononyl)carbamate dihydrochloride] | 72.0 | 0.14 | 72 | 0.12 | 98.2 | 95.8 | 36345.5 ± 6730.7 | 20.2 ± 1.3
